Assay results reported in patent US20250324971A1, “HERBICIDAL DERIVATIVES” (SYNGENTA CROP PROTECTION AG, priority 2022, published 2025).

Columns and labels:
Format in all cases: in vivo
[1] = system: Amaranthus retoflexus (AMARE); experiment: Pre-Emergence Test (herbicidal, glasshouse pots); settings: rate 1000 g/ha, evaluated after 13 days, five-point scale
[2] = system: Amaranthus palmeri (AMAPA); experiment: Pre-Emergence Test (herbicidal, glasshouse pots); settings: rate 1000 g/ha, evaluated after 13 days, five-point scale
[3] = system: Echinochloa crus-galli (ECHCG); experiment: Pre-Emergence Test (herbicidal, glasshouse pots); settings: rate 1000 g/ha, evaluated after 13 days, five-point scale
[4] = system: Amaranthus palmeri (AMAPA); experiment: Post-Emergence Test (herbicidal, glasshouse pots); settings: evaluated after 13 days
Method: (§1) Seeds of a variety of test species are sown in standard soil in pots (Setaria faberi (SETFA), Ipomoea hederacea (IPOHE), Echinochloa crus-galli (ECHCG), (Amaranthus retoflexus (AMARE), Zea mays (ZEAMX), and Amaranthus palmeri (AMAPA)). After 8 days cultivation under controlled conditions in a glasshouse (at 24° C./16° C., day/night; 14 hours light; 65% humidity), the plants arm sprayed with an aqueous spray solution derived from the formulation of the technical active ingredient in acetone/water (50:50) solution containing 0.5% Tween 20 (polyoxyethylene sorbitan monolaurate, CAS RN 9005-84-5). Rate of application is shown in g/ha in the tables below. The test plants are then grown in a glasshouse under controlled conditions in a glasshouse (at 24° C./16° C., day/night; 14 hours light; 65% humidity) and watered twice daily. After 13 days the test is evaluated for the percentage damage caused to the plant. The biological activities are shown in the following table on a five-point scale (5=81-100%; 4=61-80%; 3=41-60%; 2=21-40%; 1=0-20%; -=not tested).

[5] = system: Echinochloa crus-galli (ECHCG); experiment: Post-Emergence Test (herbicidal, glasshouse pots); settings: evaluated after 13 days
Method: as §1

[6] = system: Ipomoea hederacea (IPOHE); experiment: Post-Emergence Test (herbicidal, glasshouse pots); settings: evaluated after 13 days
Method: as §1

[7] = system: Amaranthus retoflexus (AMARE); experiment: Post-Emergence Test (herbicidal, glasshouse pots); settings: evaluated after 13 days
Method: as §1

Zea mays (ZEAMX) [8] = experiment: Post-Emergence Test (herbicidal, glasshouse pots); settings: evaluated after 13 days
Method: as §1

[9] = system: Ipomoea hederacea (IPOHE); experiment: Pre-Emergence Test (herbicidal, glasshouse pots); settings: rate 1000 g/ha, evaluated after 13 days, five-point scale
Zea mays (ZEAMX) [10] = experiment: Pre-Emergence Test (herbicidal, glasshouse pots); settings: rate 1000 g/ha, evaluated after 13 days, five-point scale

SMILES | percentage damage caused to the plant, AMARE [1] | percentage damage caused to the plant, AMAPA [2] | percentage damage caused to the plant, ECHCG [3] | Post-Emergence Test AMAPA percentage damage (five-point scale) ([4]; rate 1000 g/ha) | Post-Emergence Test ECHCG percentage damage (five-point scale) ([5]; rate 1000 g/ha) | Post-Emergence Test IPHOE percentage damage (five-point scale) ([6]; rate 1000 g/ha) | Post-Emergence Test AMARE percentage damage (five-point scale) ([7]; rate 1000 g/ha) | Post-Emergence Test ZEAMX percentage damage (five-point scale) (Zea mays (ZEAMX) [8]; rate 1000 g/ha) | percentage damage caused to the plant, IPHOE [9] | percentage damage caused to the plant, ZEAMX (Zea mays (ZEAMX) [10]) | Post-Emergence Test AMAPA percentage damage (five-point scale) ([4]; rate 250 g/ha) | Post-Emergence Test ECHCG percentage damage (five-point scale) ([5]; rate 250 g/ha) | Post-Emergence Test IPHOE percentage damage (five-point scale) ([6]; rate 250 g/ha) | Post-Emergence Test AMARE percentage damage (five-point scale) ([7]; rate 250 g/ha) | Post-Emergence Test ZEAMX percentage damage (five-point scale) (Zea mays (ZEAMX) [8]; rate 250 g/ha)
CCn1c(Oc2ccc(Cl)c(Cl)c2)cc(=O)c(C(=O)O)c1-c1ccc(Cl)c(Cl)c1 [Compound 18, 6-(3,4-dichlorophenoxy)-2-(3,4-dichlorophenyl)-1-ethyl-4-oxo-pyridine-3-carboxylic acid] | 0 | 0 | 0 | 1 (1=0-20%) | 0 | 1 (1=0-20%) | 1 (1=0-20%) | 1 (1=0-20%) | 0 | 0 |  |  |  |  | 
CCn1c(Nc2cccc(C)n2)cc(=O)c(C(=O)O)c1-c1ccc(Cl)c(Cl)c1 [Compound 32, 2-(3,4-dichlorophenyl)-1-ethyl-6-[(6-methyl-2-pyridyl)amino]-4-oxo-pyridine-3-carboxylic acid] |  |  |  | 3 (3=41-60%) | 2 (2=21-40%) | 1 (1=0-20%) | 4 (4=61-80%) | 1 (1=0-20%) |  |  |  |  |  |  | 
CCn1c(Oc2cc(Cl)cc(Cl)c2)cc(=O)c(C(=O)O)c1-c1ccc(Cl)c(Cl)c1 [Compound 16, 6-(3,5-dichlorophenoxy)-2-(3,4-dichlorophenyl)-1-ethyl-4-oxo-pyridine-3-carboxylic acid] |  |  |  | 1 (1=0-20%) | 1 (1=0-20%) | 2 (2=21-40%) | 2 (2=21-40%) | 1 (1=0-20%) |  |  |  |  |  |  | 
CCn1c(Oc2ccc(OC)cc2)cc(=O)c(C(=O)O)c1-c1ccc(Cl)c(Cl)c1 [Compound 11, 2-(3,4-dichlorophenyl)-1-ethyl-6-(4-methoxyphenoxy)-4-oxo-pyridine-3-carboxylic acid] | 2 (2=21-40%) | 1 (1=0-20%) | 0 | 5 (5=81-100%) | 1 (1=0-20%) | 3 (3=41-60%) | 5 (5=81-100%) | 2 (2=21-40%) | 5 (5=81-100%) | 1 (1=0-20%) |  |  |  |  | 
CCn1c(Oc2cccc(Cl)c2Cl)cc(=O)c(C(=O)O)c1-c1ccc(Cl)c(Cl)c1 [Compound 17, 6-(2,3-dichlorophenoxy)-2-(3,4-dichlorophenyl)-1-ethyl-4-oxo-pyridine-3-carboxylic acid] | 0 | 0 | 0 | 1 (1=0-20%) | 1 (1=0-20%) | 0 | 1 (1=0-20%) | 1 (1=0-20%) | 0 | 1 (1=0-20%) |  |  |  |  | 
CCn1c(Sc2ccc(F)cc2)cc(=O)c(C(=O)O)c1-c1ccc(Cl)c(Cl)c1 [Compound 10, 2-(3,4-dichlorophenyl)-1-ethyl-6-(4-fluorophenyl)sulfanyl-4-oxo-pyridine-3-carboxylic acid] | 1 (1=0-20%) | 0 | 2 (2=21-40%) | 1 (1=0-20%) | 2 (2=21-40%) | 2 (2=21-40%) | 1 (1=0-20%) | 1 (1=0-20%) | 2 (2=21-40%) | 0 |  |  |  |  | 
CCn1c(Oc2cncc(Cl)c2)cc(=O)c(C(=O)O)c1-c1ccc(Cl)c(Cl)c1 [Compound 13, 6-[(5-chloro-3-pyridyl)oxy]-2-(3,4-dichlorophenyl)-1-ethyl-4-oxo-pyridine-3-carboxylic acid] | 5 (5=81-100%) | 4 (4=61-80%) | 4 (4=61-80%) | 4 (4=61-80%) | 5 (5=81-100%) | 4 (4=61-80%) | 5 (5=81-100%) | 4 (4=61-80%) | 5 (5=81-100%) | 2 (2=21-40%) |  |  |  |  | 
CCn1c(Oc2ccc(Cl)cc2Cl)cc(=O)c(C(=O)O)c1-c1ccc(Cl)c(Cl)c1 [Compound 24, 6-(2,4-dichlorophenoxy)-2-(3,4-dichlorophenyl)-1-ethyl-4-oxo-pyridine-3-carboxylic acid] |  |  |  | 1 (1=0-20%) | 0 | 1 (1=0-20%) | 1 (1=0-20%) | 1 (1=0-20%) |  |  |  |  |  |  | 
CCn1c(Nc2cccc(Cl)n2)cc(=O)c(C(=O)O)c1-c1ccc(Cl)c(Cl)c1 [Compound 30, 6-[(6-chloro-2-pyridyl)amino]-2-(3,4-dichlorophenyl)-1-ethyl-4-oxo-pyridine-3-carboxylic acid] |  |  |  | 2 (2=21-40%) | 0 | 2 (2=21-40%) | 2 (2=21-40%) | 1 (1=0-20%) |  |  |  |  |  |  | 
CCn1c(Nc2ccccc2F)cc(=O)c(C(=O)O)c1-c1ccc(Cl)c(Cl)c1 [Compound 1, 2-(3,4-dichlorophenyl)-1-ethyl-6-(2-fluoroanilino)-4-oxo-pyridine-3-carboxylic acid] |  |  |  |  |  |  |  |  |  |  | 1 (1=0-20%) | 0 | 2 (2=21-40%) | 1 (1=0-20%) | 0
CCn1c(Nc2ccc(C3CC3)cc2)cc(=O)c(C(=O)O)c1-c1ccc(Cl)c(Cl)c1 [Compound 22] | 1 (1=0-20%) | 0 | 0 |  |  |  |  |  | 0 | 0 |  |  |  |  | 
CCn1c(Oc2cc(Cl)cc(OC)c2)cc(=O)c(C(=O)O)c1-c1ccc(Cl)c(Cl)c1 [Compound 25, 6-(3-chloro-5-methoxy-phenoxy)-2-(3,4-dichlorophenyl)-1-ethyl-4-oxo-pyridine-3-carboxylic acid] |  |  |  | 1 (1=0-20%) | 0 | 1 (1=0-20%) | 1 (1=0-20%) | 0 |  |  |  |  |  |  | 
CCn1c(OC)cc(=O)c(C(=O)O)c1-c1ccc(Cl)c(Cl)c1 [Compound 5, 2-(3,4-dichlorophenyl)-1-ethyl-6-methoxy-4-oxo-pyridine-3-carboxylic acid] |  |  |  |  |  |  |  |  |  |  | 0 | 3 (3=41-60%) | 3 (3=41-60%) | 0 | 2 (2=21-40%)
CCn1c(Nc2ccc(Cl)cc2F)cc(=O)c(C(=O)O)c1-c1ccc(Cl)c(Cl)c1 [Compound 29, 6-(4-chloro-2-fluoro-anilino)-2-(3,4-dichlorophenyl)-1-ethyl-4-oxo-pyridine-3-carboxylic acid] |  |  |  | 2 (2=21-40%) | 0 | 3 (3=41-60%) | 2 (2=21-40%) | 0 |  |  |  |  |  |  | 
